Values joined by “and” are separate entries in the source; they are usually repeats but may differ in a detail not shown here. Equal entries are not always repeated.
How the values were obtained:
[1] = Ethylene-octene copolymerization (RUN A) in parallel pressure reactor; settings: catalyst = 20 nmol, activator = 22 nmol, 1-octene = 100 μL, isohexane 5 mL, tri(n-octyl)aluminum = 500 nmol, T = 100° C., P = 100 PSI
Experimental: (§1) Unless stated otherwise, solutions of the metal complexes and activators were prepared in a drybox using toluene or methylcyclohexane. Concentrations were typically 0.2 mmol/L. Tri-n-octylaluminum (TNOAL, neat, AkzoNobel) was typically used as a scavenger. Concentration of the TNOAL solution in toluene was from 0.5 to 2 mmol/L.
(§2) Polymerizations were carried out in a parallel pressure reactor, as generally described in U.S. Pat. Nos. 6,306,658; 6,455,316; 6,489,168; WO 2000/009255; and Murphy, V. et al. (2003) “A Fully Integrated High-Throughput Screening Methodology for the Discovery of New Polyolefin Catalysts: Discovery of a New Class of High Temperature Single-Site Group (IV) Copolymerization Catalysts,” J. Am. Chem. Soc., v.125, pp. 4306-4317, each of which is incorporated by reference. The experiments were conducted in an inert atmosphere (N2) drybox using autoclaves equipped with an external heater for temperature control, glass inserts (internal volume of reactor=23.5 mL for C2 and C2/C8; 22.5 mL for C3 runs), septum inlets, regulated supply of nitrogen, ethylene and propylene, and equipped with disposable PEEK mechanical stirrers (800 RPM). The autoclaves were prepared by purging with dry nitrogen at 110° C. or 115° C. for 5 hours and then at 25° C. for 5 hours. Although the specific quantities, temperatures, solvents, reactants, reactant ratios, pressures, and other variables are frequently changed from one polymerization run to the next, the following describes a typical polymerization performed in a parallel pressure reactor.
(§3) RUN A: Ethylene-octene copolymerization (EO). A series of ethylene-octene polymerizations were performed in the parallel pressure reactor according to the procedure described above. In these studies rac-dimethylsilyl-bis(indenyl)hafnium dimethyl (MCN-1) was used along with ammonium borate activators. […] When sufficient polymer yield was attained (e.g., at least ˜10 mg), the polyethylene product was analyzed by Rapid GPC, described below.

[2] = Ethylene homopolymerization (RUN B) in parallel pressure reactor; settings: catalyst = 20 nmol, activator = 22 nmol, isohexane 5 mL, tri(n-octyl)aluminum = 500 nmol, T = 100° C., P = 100 PSI
Experimental: as §1, §2
as §3, with “B: Ethylene homopolymerization (PE).” for “A: Ethylene-octene copolymerization (EO).”, “ethylene” for “ethylene-octene”

| Molecule | activity [1] | activity [2] |
| --- | --- | --- |
| CCCCCCCCCCCCCCCCCCN(C)c1cccc2c([NH+](C)CCCCCCCCCCCCCCCCCC)cccc12.Fc1c(F)c(F)c([B-](c2c(F)c(F)c(F)c(F)c2F)(c2c(F)c(F)c(F)c(F)c2F)c2c(F)c(F)c(F)c(F)c2F)c(F)c1F [DANH-BF20] | 545 kg/mmol/h and 661 kg/mmol/h and 448 kg/mmol/h and 492 kg/mmol/h | 406 kg/mmol/h and 410 kg/mmol/h and 442 kg/mmol/h and 454 kg/mmol/h |
| CCCCCCCCCCCCCCCCCCN(C)c1cccc2c([NH+](C)CCCCCCCCCCCCCCCCCC)cccc12.Fc1c(F)c(F)c2c(F)c([B-](c3c(F)c(F)c4c(F)c(F)c(F)c(F)c4c3F)(c3c(F)c(F)c4c(F)c(F)c(F)c(F)c4c3F)c3c(F)c(F)c4c(F)c(F)c(F)c(F)c4c3F)c(F)c(F)c2c1F [DANH-BF28] | 466 kg/mmol/h and 445 kg/mmol/h and 421 kg/mmol/h and 397 kg/mmol/h | 388 kg/mmol/h and 364 kg/mmol/h and 478 kg/mmol/h and 416 kg/mmol/h |
| N,N-Dimethylanilinium tetrakis(pentafluorophenyl)borate [DMAH-BF20, reference compound] | 526 kg/mmol/h and 359 kg/mmol/h and 668 kg/mmol/h and 689 kg/mmol/h | 366 kg/mmol/h and 380 kg/mmol/h and 516 kg/mmol/h and 454 kg/mmol/h |

— patent publication US11584707B2, “Non-coordinating anion type activators containing cation having aryldiamine groups and uses thereof” (ExxonMobil Chemical Patents Inc., priority 2019, dated 2023)
